{"source": "the NIST ThermoML archive (doi:10.1021/je100821g)", "key": {"[1]": {"settings": "Liquid; for viscosity / mass density: 101.33 kPa; for viscosity: Concentric cylinders viscometry; for mass density: Vibrating tube method"}, "[2]": {"assay": "excess molar enthalpy (molar enthalpy of mixing); xn = mol fraction of the nth substance listed", "settings": "303 K, 101 kPa, Liquid, Calvet calorimetry"}, "[3]": {"assay": "xn = mol fraction of the nth substance listed", "settings": "293.15 K, 101 kPa, Liquid; for viscosity: Concentric cylinders viscometry"}}, "note": "Numbers after ± are expanded uncertainties.", "data": [{"smiles": "COC(C)(C)C", "note": "[2-methoxy-2-methylpropane]", "values": [{"measurement": "viscosity", "setting": "[1]; 273.15 K", "value": "0.39 ± 0.005", "unit": "mPa·s"}, {"measurement": "mass density", "setting": "[1]; 273.15 K", "value": "760.4 ± 0.3", "unit": "kg/m3"}, {"measurement": "viscosity", "setting": "[1]; 283.15 K", "value": "0.36 ± 0.005", "unit": "mPa·s"}, {"measurement": "mass density", "setting": "[1]; 283.15 K", "value": "750.1 ± 0.3", "unit": "kg/m3"}, {"measurement": "vapor or sublimation pressure", "setting": "[1]; 286.5 K", "value": "20 ± 0.2", "unit": "kPa"}, {"measurement": "vapor or sublimation pressure", "setting": "[1]; 291.3 K", "value": "25 ± 0.21", "unit": "kPa"}, {"measurement": "viscosity", "setting": "[1]; 293.15 K", "value": "0.333 ± 0.005", "unit": "mPa·s"}, {"measurement": "mass density", "setting": "[1]; 293.15 K", "value": "739.9 ± 0.3", "unit": "kg/m3"}, {"measurement": "vapor or sublimation pressure", "setting": "[1]; 295.5 K", "value": "30 ± 0.22", "unit": "kPa"}, {"measurement": "viscosity", "setting": "[1]; 298.15 K", "value": "0.319 ± 0.005", "unit": "mPa·s"}, {"measurement": "mass density", "setting": "[1]; 298.15 K", "value": "734.4 ± 0.3", "unit": "kg/m3"}, {"measurement": "vapor or sublimation pressure", "setting": "[1]; 299.2 K", "value": "35 ± 0.23", "unit": "kPa"}, {"measurement": "vapor or sublimation pressure", "setting": "[1]; 302.5 K", "value": "40 ± 0.19", "unit": "kPa"}, {"measurement": "viscosity", "setting": "[1]; 303.15 K", "value": "0.304 ± 0.005", "unit": "mPa·s"}, {"measurement": "mass density", "setting": "[1]; 303.15 K", "value": "729.2 ± 0.3", "unit": "kg/m3"}, {"measurement": "vapor or sublimation pressure", "setting": "[1]; 303.15 K", "value": "41 ± 0.44", "unit": "kPa"}, {"measurement": "vapor or sublimation pressure", "setting": "[1]; 305.45 K", "value": "45 ± 0.28", "unit": "kPa"}, {"measurement": "vapor or sublimation pressure", "setting": "[1]; 308.2 K", "value": "50 ± 0.27", "unit": "kPa"}, {"measurement": "vapor or sublimation pressure", "setting": "[1]; 310.8 K", "value": "55 ± 0.29", "unit": "kPa"}, {"measurement": "vapor or sublimation pressure", "setting": "[1]; 313.1 K", "value": "60 ± 0.31", "unit": "kPa"}, {"measurement": "viscosity", "setting": "[1]; 313.15 K", "value": "0.278 ± 0.005", "unit": "mPa·s"}, {"measurement": "mass density", "setting": "[1]; 313.15 K", "value": "718.5 ± 0.3", "unit": "kg/m3"}, {"measurement": "vapor or sublimation pressure", "setting": "[1]; 315.3 K", "value": "65 ± 0.32", "unit": "kPa"}, {"measurement": "vapor or sublimation pressure", "setting": "[1]; 317.4 K", "value": "70 ± 0.33", "unit": "kPa"}, {"measurement": "vapor or sublimation pressure", "setting": "[1]; 319.3 K", "value": "75 ± 0.35", "unit": "kPa"}, {"measurement": "vapor or sublimation pressure", "setting": "[1]; 321.1 K", "value": "80 ± 0.36", "unit": "kPa"}, {"measurement": "vapor or sublimation pressure", "setting": "[1]; 322.9 K", "value": "85 ± 0.38", "unit": "kPa"}, {"measurement": "vapor or sublimation pressure", "setting": "[1]; 324.5 K", "value": "90 ± 0.39", "unit": "kPa"}, {"measurement": "vapor or sublimation pressure", "setting": "[1]; 325.4 K", "value": "92.5 ± 0.38", "unit": "kPa"}, {"measurement": "vapor or sublimation pressure", "setting": "[1]; 326.2 K", "value": "95 ± 0.4", "unit": "kPa"}, {"measurement": "vapor or sublimation pressure", "setting": "[1]; 326.9 K", "value": "97.2 ± 0.4", "unit": "kPa"}]}, {"smiles": "ClC(Cl)Cl", "note": "[trichloromethane] + COC(C)(C)C", "values": [{"measurement": "excess molar enthalpy", "setting": "[2]; x1 = 0.038", "value": "-0.0817 ± 0.00813", "unit": "kcal/mol"}, {"measurement": "excess molar enthalpy", "setting": "[2]; x1 = 0.068", "value": "-0.159 ± 0.0136", "unit": "kcal/mol"}, {"measurement": "excess molar enthalpy", "setting": "[2]; x1 = 0.097", "value": "-0.22 ± 0.0213", "unit": "kcal/mol"}, {"measurement": "excess molar enthalpy", "setting": "[2]; x1 = 0.101", "value": "-0.244 ± 0.0229", "unit": "kcal/mol"}, {"measurement": "excess molar enthalpy", "setting": "[2]; x1 = 0.118", "value": "-0.263 ± 0.0213", "unit": "kcal/mol"}, {"measurement": "excess molar enthalpy", "setting": "[2]; x1 = 0.154", "value": "-0.287 ± 0.0232", "unit": "kcal/mol"}, {"measurement": "excess molar enthalpy", "setting": "[2]; x1 = 0.172", "value": "-0.311 ± 0.0239", "unit": "kcal/mol"}, {"measurement": "excess molar enthalpy", "setting": "[2]; x1 = 0.219", "value": "-0.382 ± 0.0311", "unit": "kcal/mol"}, {"measurement": "excess molar enthalpy", "setting": "[2]; x1 = 0.251", "value": "-0.454 ± 0.0359", "unit": "kcal/mol"}, {"measurement": "excess molar enthalpy", "setting": "[2]; x1 = 0.39", "value": "-0.502 ± 0.0406", "unit": "kcal/mol"}, {"measurement": "excess molar enthalpy", "setting": "[2]; x1 = 0.516", "value": "-0.502 ± 0.0406", "unit": "kcal/mol"}, {"measurement": "excess molar enthalpy", "setting": "[2]; x1 = 0.669", "value": "-0.43 ± 0.0335", "unit": "kcal/mol"}, {"measurement": "excess molar enthalpy", "setting": "[2]; x1 = 0.78", "value": "-0.359 ± 0.0287", "unit": "kcal/mol"}, {"measurement": "excess molar enthalpy", "setting": "[2]; x1 = 0.864", "value": "-0.191 ± 0.0158", "unit": "kcal/mol"}, {"measurement": "excess molar enthalpy", "setting": "[2]; x1 = 0.899", "value": "-0.155 ± 0.0127", "unit": "kcal/mol"}, {"measurement": "excess molar enthalpy", "setting": "[2]; x1 = 0.931", "value": "-0.115 ± 0.0098", "unit": "kcal/mol"}, {"measurement": "excess molar enthalpy", "setting": "[2]; x1 = 0.958", "value": "-0.0669 ± 0.00621", "unit": "kcal/mol"}, {"measurement": "excess molar enthalpy", "setting": "[2]; x1 = 0.986", "value": "-0.0359 ± 0.0043", "unit": "kcal/mol"}, {"measurement": "excess molar enthalpy", "setting": "[2]; x1 = 1", "value": "0 ± 0.000239", "unit": "kcal/mol"}, {"measurement": "viscosity", "setting": "[3]; x1 = 0.0527", "value": "0.358 ± 0.005", "unit": "mPa·s"}, {"measurement": "viscosity", "setting": "[3]; x1 = 0.0834", "value": "0.372 ± 0.005", "unit": "mPa·s"}, {"measurement": "viscosity", "setting": "[3]; x1 = 0.1841", "value": "0.423 ± 0.005", "unit": "mPa·s"}, {"measurement": "viscosity", "setting": "[3]; x1 = 0.2714", "value": "0.47 ± 0.006", "unit": "mPa·s"}, {"measurement": "viscosity", "setting": "[3]; x1 = 0.358", "value": "0.514 ± 0.006", "unit": "mPa·s"}, {"measurement": "viscosity", "setting": "[3]; x1 = 0.4511", "value": "0.56 ± 0.006", "unit": "mPa·s"}, {"measurement": "viscosity", "setting": "[3]; x1 = 0.546", "value": "0.595 ± 0.006", "unit": "mPa·s"}, {"measurement": "viscosity", "setting": "[3]; x1 = 0.6303", "value": "0.612 ± 0.007", "unit": "mPa·s"}, {"measurement": "viscosity", "setting": "[3]; x1 = 0.724", "value": "0.62 ± 0.007", "unit": "mPa·s"}, {"measurement": "viscosity", "setting": "[3]; x1 = 0.8108", "value": "0.618 ± 0.007", "unit": "mPa·s"}, {"measurement": "viscosity", "setting": "[3]; x1 = 0.8948", "value": "0.613 ± 0.006", "unit": "mPa·s"}, {"measurement": "viscosity", "setting": "[3]; x1 = 0.9515", "value": "0.609 ± 0.006", "unit": "mPa·s"}, {"measurement": "viscosity", "setting": "[3]; x1 = 1", "value": "0.6 ± 0.006", "unit": "mPa·s"}, {"measurement": "mass density", "setting": "[3]; x1 = 0.0527", "value": "768.1 ± 0.4", "unit": "kg/m3"}, {"measurement": "mass density", "setting": "[3]; x1 = 0.0834", "value": "785.4 ± 0.4", "unit": "kg/m3"}, {"measurement": "mass density", "setting": "[3]; x1 = 0.1841", "value": "842.6 ± 0.4", "unit": "kg/m3"}, {"measurement": "mass density", "setting": "[3]; x1 = 0.2714", "value": "895.6 ± 0.3", "unit": "kg/m3"}, {"measurement": "mass density", "setting": "[3]; x1 = 0.358", "value": "951.5 ± 0.3", "unit": "kg/m3"}, {"measurement": "mass density", "setting": "[3]; x1 = 0.4511", "value": "1015 ± 0.3", "unit": "kg/m3"}, {"measurement": "mass density", "setting": "[3]; x1 = 0.546", "value": "1083.8 ± 0.3", "unit": "kg/m3"}, {"measurement": "mass density", "setting": "[3]; x1 = 0.6303", "value": "1148.9 ± 0.4", "unit": "kg/m3"}, {"measurement": "mass density", "setting": "[3]; x1 = 0.724", "value": "1225.9 ± 0.4", "unit": "kg/m3"}, {"measurement": "mass density", "setting": "[3]; x1 = 0.8108", "value": "1302.9 ± 0.5", "unit": "kg/m3"}, {"measurement": "mass density", "setting": "[3]; x1 = 0.8948", "value": "1381.1 ± 0.6", "unit": "kg/m3"}, {"measurement": "mass density", "setting": "[3]; x1 = 0.9515", "value": "1437.9 ± 0.7", "unit": "kg/m3"}, {"measurement": "mass density", "setting": "[3]; x1 = 1", "value": "1488.4 ± 0.7", "unit": "kg/m3"}]}, {"smiles": "ClC(Cl)Cl", "note": "[trichloromethane]", "values": [{"measurement": "viscosity", "setting": "[1]; 273.15 K", "value": 0.713, "unit": "mPa·s"}, {"measurement": "mass density", "setting": "[1]; 273.15 K", "value": "1526 ± 0.3", "unit": "kg/m3"}, {"measurement": "viscosity", "setting": "[1]; 283.15 K", "value": 0.651, "unit": "mPa·s"}, {"measurement": "mass density", "setting": "[1]; 283.15 K", "value": "1507.1 ± 0.3", "unit": "kg/m3"}, {"measurement": "viscosity", "setting": "[1]; 293.15 K", "value": 0.6, "unit": "mPa·s"}, {"measurement": "mass density", "setting": "[1]; 293.15 K", "value": "1488.4 ± 0.3", "unit": "kg/m3"}, {"measurement": "viscosity", "setting": "[1]; 298.15 K", "value": 0.576, "unit": "mPa·s"}, {"measurement": "mass density", "setting": "[1]; 298.15 K", "value": "1478.8 ± 0.3", "unit": "kg/m3"}, {"measurement": "viscosity", "setting": "[1]; 303.15 K", "value": 0.552, "unit": "mPa·s"}, {"measurement": "mass density", "setting": "[1]; 303.15 K", "value": "1469.2 ± 0.3", "unit": "kg/m3"}, {"measurement": "vapor or sublimation pressure", "setting": "[1]; 303.15 K", "value": "32.2 ± 0.36", "unit": "kPa"}, {"measurement": "viscosity", "setting": "[1]; 313.15 K", "value": 0.509, "unit": "mPa·s"}, {"measurement": "mass density", "setting": "[1]; 313.15 K", "value": "1450 ± 0.3", "unit": "kg/m3"}, {"measurement": "viscosity", "setting": "[1]; 318.15 K", "value": 0.491, "unit": "mPa·s"}, {"measurement": "mass density", "setting": "[1]; 318.15 K", "value": "1440 ± 0.3", "unit": "kg/m3"}]}, {"smiles": "COC(C)(C)C", "note": "[2-methoxy-2-methylpropane] + ClC(Cl)Cl", "values": [{"measurement": "excess molar enthalpy", "setting": "[2]; x2 = 0", "value": "0 ± 0.000239", "unit": "kcal/mol"}, {"measurement": "viscosity", "setting": "[3]; x2 = 0", "value": "0.333 ± 0.005", "unit": "mPa·s"}, {"measurement": "mass density", "setting": "[3]; x2 = 0", "value": "739.9 ± 0.4", "unit": "kg/m3"}]}]}
